According to the NIST ThermoML archive (doi:10.1021/je1013476):

Key:
[1] = xn = mol fraction of the nth substance listed; conditions: 101 kPa, Liquid; for viscosity: Capillary tube (Ostwald / Ubbelohde) method; for mass density: Vibrating tube method
[2] = excess molar enthalpy (molar enthalpy of mixing); xn = mol fraction of the nth substance listed; conditions: 303.15 K, 101 kPa, Liquid, Calvet calorimetry

CCOC(=O)OCC [diethyl carbonate] + CCCCCO
[1]
Conditions | mass density [kg/m3] | viscosity [mPa·s]
288.15 K, x1 = 0.05026 | 826.9 | 3.879
288.15 K, x1 = 0.106 | 836.4 | 3.215
288.15 K, x1 = 0.1881 | 850.28 | 2.529
288.15 K, x1 = 0.2879 | 866.92 | 1.972
288.15 K, x1 = 0.396 | 884.69 | 1.595
288.15 K, x1 = 0.4905 | 900.03 | 1.355
288.15 K, x1 = 0.5917 | 916.28 | 1.182
288.15 K, x1 = 0.7104 | 935.09 | 1.03
288.15 K, x1 = 0.8067 | 950.23 | 0.948
288.15 K, x1 = 0.896 | 964.17 | 0.898
288.15 K, x1 = 0.9607 | 974.25 | 0.871
293.15 K, x1 = 0.04854 | 822.8 | 3.391
293.15 K, x1 = 0.0572 | 824.25 | 3.292
293.15 K, x1 = 0.1071 | 832.6 | 2.796
293.15 K, x1 = 0.1988 | 847.85 | 2.138
293.15 K, x1 = 0.29 | 862.87 | 1.725
293.15 K, x1 = 0.398 | 880.41 | 1.402
293.15 K, x1 = 0.4939 | 895.79 | 1.202
293.15 K, x1 = 0.5998 | 912.55 | 1.049
293.15 K, x1 = 0.6968 | 927.7 | 0.947
293.15 K, x1 = 0.8009 | 943.91 | 0.869
293.15 K, x1 = 0.8902 | 957.76 | 0.826
293.15 K, x1 = 0.9604 | 968.66 | 0.808
303.15 K, x1 = 0.06248 | 817.46 | 2.453
303.15 K, x1 = 0.09976 | 823.53 | 2.195
303.15 K, x1 = 0.2017 | 839.99 | 1.686
303.15 K, x1 = 0.2898 | 854.09 | 1.395
303.15 K, x1 = 0.3969 | 871 | 1.159
303.15 K, x1 = 0.4922 | 885.91 | 1.013
303.15 K, x1 = 0.5941 | 901.64 | 0.893
303.15 K, x1 = 0.6987 | 917.65 | 0.808
303.15 K, x1 = 0.8039 | 933.63 | 0.75
303.15 K, x1 = 0.8997 | 948.13 | 0.715
303.15 K, x1 = 0.9608 | 957.42 | 0.703
313.15 K, x1 = 0.05411 | 808.37 | 1.951
313.15 K, x1 = 0.1042 | 816.28 | 1.705
313.15 K, x1 = 0.1939 | 830.39 | 1.373
313.15 K, x1 = 0.29 | 845.34 | 1.139
313.15 K, x1 = 0.406 | 863.19 | 0.95
313.15 K, x1 = 0.4965 | 876.96 | 0.847
313.15 K, x1 = 0.5957 | 891.9 | 0.763
313.15 K, x1 = 0.7474 | 914.56 | 0.675
313.15 K, x1 = 0.803 | 922.81 | 0.653
313.15 K, x1 = 0.8997 | 937.15 | 0.628
313.15 K, x1 = 0.9582 | 945.86 | 0.62

[2]
Conditions | excess molar enthalpy [kJ/mol]
x1 = 0.04842 | 0.383
x1 = 0.085 | 0.654
x1 = 0.1521 | 1.05
x1 = 0.2122 | 1.36
x1 = 0.263 | 1.56
x1 = 0.3154 | 1.75
x1 = 0.3592 | 1.85
x1 = 0.4399 | 1.99
x1 = 0.4581 | 2
x1 = 0.5444 | 2.06
x1 = 0.64 | 1.97
x1 = 0.6925 | 1.82
x1 = 0.7415 | 1.7
x1 = 0.7993 | 1.49
x1 = 0.8519 | 1.22
x1 = 0.9139 | 0.798

CCOC(=O)OCC [diethyl carbonate] + CCCO
[1]
Conditions | mass density [kg/m3] | viscosity [mPa·s]
288.15 K, x1 = 0.05124 | 821.17 | 2.135
288.15 K, x1 = 0.07262 | 826.61 | 2.007
288.15 K, x1 = 0.1063 | 834.89 | 1.833
288.15 K, x1 = 0.1511 | 845.43 | 1.638
288.15 K, x1 = 0.2122 | 858.98 | 1.459
288.15 K, x1 = 0.2638 | 869.76 | 1.33
288.15 K, x1 = 0.31 | 878.92 | 1.248
288.15 K, x1 = 0.4016 | 895.92 | 1.115
288.15 K, x1 = 0.5147 | 915.01 | 1
288.15 K, x1 = 0.5916 | 926.96 | 0.947
288.15 K, x1 = 0.5994 | 928.13 | 0.937
288.15 K, x1 = 0.6906 | 941.32 | 0.905
288.15 K, x1 = 0.7887 | 954.53 | 0.871
288.15 K, x1 = 0.8694 | 964.81 | 0.859
288.15 K, x1 = 0.9428 | 973.71 | 0.865
293.15 K, x1 = 0.04957 | 816.57 | 1.906
293.15 K, x1 = 0.1001 | 829.1 | 1.657
293.15 K, x1 = 0.2101 | 853.96 | 1.315
293.15 K, x1 = 0.3074 | 873.57 | 1.132
293.15 K, x1 = 0.4038 | 891.34 | 1.01
293.15 K, x1 = 0.5097 | 909.09 | 0.92
293.15 K, x1 = 0.6002 | 923.04 | 0.868
293.15 K, x1 = 0.6963 | 936.76 | 0.829
293.15 K, x1 = 0.8059 | 951.25 | 0.804
293.15 K, x1 = 0.8817 | 960.76 | 0.796
293.15 K, x1 = 0.9433 | 968.14 | 0.796
303.15 K, x1 = 0.05148 | 808.69 | 1.495
303.15 K, x1 = 0.1008 | 820.63 | 1.329
303.15 K, x1 = 0.2044 | 843.53 | 1.087
303.15 K, x1 = 0.3161 | 865.57 | 0.93
303.15 K, x1 = 0.4048 | 881.45 | 0.847
303.15 K, x1 = 0.4459 | 888.41 | 0.818
303.15 K, x1 = 0.6 | 912.35 | 0.743
303.15 K, x1 = 0.6892 | 924.91 | 0.715
303.15 K, x1 = 0.792 | 938.39 | 0.697
303.15 K, x1 = 0.8809 | 949.35 | 0.692
303.15 K, x1 = 0.9364 | 955.95 | 0.692
313.15 K, x1 = 0.04668 | 798.89 | 1.214
313.15 K, x1 = 0.1008 | 811.63 | 1.071
313.15 K, x1 = 0.2119 | 835.52 | 0.885
313.15 K, x1 = 0.3075 | 854.04 | 0.783
313.15 K, x1 = 0.4133 | 872.66 | 0.71
313.15 K, x1 = 0.5019 | 886.95 | 0.668
313.15 K, x1 = 0.5998 | 901.56 | 0.637
313.15 K, x1 = 0.6913 | 914.21 | 0.618
313.15 K, x1 = 0.7902 | 926.98 | 0.607
313.15 K, x1 = 0.8456 | 933.82 | 0.608
313.15 K, x1 = 0.8699 | 936.73 | 0.606
313.15 K, x1 = 0.8903 | 939.21 | 0.607
313.15 K, x1 = 0.9488 | 946.12 | 0.61

[2]
Conditions | excess molar enthalpy [kJ/mol]
x1 = 0.05945 | 0.433
x1 = 0.1227 | 0.82
x1 = 0.1956 | 1.17
x1 = 0.2498 | 1.37
x1 = 0.2677 | 1.44
x1 = 0.3018 | 1.55
x1 = 0.3762 | 1.76
x1 = 0.4569 | 1.84
x1 = 0.4906 | 1.87
x1 = 0.5642 | 1.89
x1 = 0.6182 | 1.85
x1 = 0.6932 | 1.74
x1 = 0.7453 | 1.59
x1 = 0.824 | 1.31
x1 = 0.872 | 1.04
x1 = 0.9168 | 0.727

CCOC(=O)OCC [diethyl carbonate] + CCCCCCCCO
[1]
Conditions | mass density [kg/m3] | viscosity [mPa·s]
288.15 K, x1 = 0.05879 | 834.94 | 8.723
288.15 K, x1 = 0.09178 | 838.6 | 7.678
288.15 K, x1 = 0.184 | 849.27 | 5.521
288.15 K, x1 = 0.2839 | 861.63 | 3.992
288.15 K, x1 = 0.4001 | 877.04 | 2.876
288.15 K, x1 = 0.5109 | 892.89 | 2.157
288.15 K, x1 = 0.598 | 906.21 | 1.773
288.15 K, x1 = 0.6927 | 921.66 | 1.441
288.15 K, x1 = 0.8073 | 941.89 | 1.157
288.15 K, x1 = 0.9275 | 965.14 | 0.953
288.15 K, x1 = 0.9531 | 970.42 | 0.921
293.15 K, x1 = 0.05259 | 830.75 | 7.441
293.15 K, x1 = 0.1047 | 836.45 | 6.062
293.15 K, x1 = 0.1967 | 847.03 | 4.538
293.15 K, x1 = 0.2955 | 859.15 | 3.308
293.15 K, x1 = 0.3964 | 872.38 | 2.544
293.15 K, x1 = 0.5031 | 887.37 | 1.951
293.15 K, x1 = 0.604 | 902.57 | 1.573
293.15 K, x1 = 0.6995 | 918.01 | 1.285
293.15 K, x1 = 0.8175 | 938.67 | 1.039
293.15 K, x1 = 0.9124 | 956.76 | 0.9
293.15 K, x1 = 0.9531 | 964.98 | 0.853
303.15 K, x1 = 0.05353 | 823.7 | 5.282
303.15 K, x1 = 0.1003 | 828.65 | 4.522
303.15 K, x1 = 0.1902 | 838.63 | 3.432
303.15 K, x1 = 0.3002 | 851.69 | 2.536
303.15 K, x1 = 0.4112 | 865.89 | 1.928
303.15 K, x1 = 0.5038 | 878.58 | 1.584
303.15 K, x1 = 0.5934 | 891.62 | 1.32
303.15 K, x1 = 0.6981 | 907.98 | 1.075
303.15 K, x1 = 0.8151 | 927.85 | 0.884
303.15 K, x1 = 0.9138 | 946.1 | 0.773
303.15 K, x1 = 0.9548 | 954.16 | 0.74
313.15 K, x1 = 0.05666 | 816.83 | 3.842
313.15 K, x1 = 0.1109 | 822.42 | 3.267
313.15 K, x1 = 0.1956 | 831.59 | 2.59
313.15 K, x1 = 0.2893 | 842.35 | 2.054
313.15 K, x1 = 0.4005 | 856.05 | 1.585
313.15 K, x1 = 0.5067 | 870.12 | 1.273
313.15 K, x1 = 0.6044 | 884.01 | 1.059
313.15 K, x1 = 0.7038 | 899.18 | 0.893
313.15 K, x1 = 0.8041 | 915.66 | 0.766
313.15 K, x1 = 0.9092 | 934.43 | 0.672
313.15 K, x1 = 0.954 | 942.96 | 0.643

[2]
Conditions | excess molar enthalpy [kJ/mol]
x1 = 0.09134 | 0.736
x1 = 0.1276 | 0.986
x1 = 0.1764 | 1.3
x1 = 0.2484 | 1.65
x1 = 0.3155 | 1.92
x1 = 0.374 | 2.09
x1 = 0.4304 | 2.21
x1 = 0.491 | 2.28
x1 = 0.5699 | 2.27
x1 = 0.6268 | 2.21
x1 = 0.6895 | 2.09
x1 = 0.7492 | 1.9
x1 = 0.8111 | 1.62
x1 = 0.8705 | 1.25
x1 = 0.9357 | 0.698
